Reference: patent US6337317B1, “Antimicrobial peptides and methods of use thereof” (priority 2000, dated 2002)
Where a SMILES comes first, the peptide text is derived from it.

Assays:
Human Red Blood Cells = experiment: Hemolytic assay; format: cell-based; details: red blood cells
Experimental: The toxicity of invention peptides can be assessed using a hemolytic assay in which the ability of the peptides to lyse human red blood cells is assessed (Zhang et al. (1999) Biochemistry 38:8102-8111; and Examples section).
Hemolytic activity of invention peptides was tested against human red blood cells. Freshly collected human blood treated with heparin was centrifuged to remove the buffy coat, and the erythrocytes thereby obtained were washed three times in saline (0.85% NaCl). Serial dilutions of the peptides in saline were prepared in round-bottomed microtiter plates using total volumes of 100 μl. Red blood cells were diluted with saline to 1/25 of a packed cell volume, and 50 μl of cells were added to each well. Plates, while rocking, were incubated at 37° C., and the concentration of the peptide required for lysis after 4 h was taken as the minimal hemolytic concentration.

[1] = LPS-induced endotoxemia in galactosamine-sensitized mice; format: in vivo; details: 200 μg peptide intraperitoneally, groups of 10 mice, up to 24 h
Experimental: Bacterial endotoxin (LPS) is highly toxic and can cause high mortality in both humans and animals when released during Gram-negative bacterial infection. Galactosamine-treated mice exposed to moderate does of endotoxin typically die from endotoxic shock within 17 hours following exposure. Invention peptides can be tested for their ability to protect mice against endotoxin-induced death (see Examples section). The anti-endotoxic activity of invention peptides also can be tested in an in vitro assay using a macrophage cell line (Gough et al. (1996) Infect. Immun. 64:4922-4927; and Examples section).
The ability of invention peptides to protect against LPS-induced endotoxemia was assessed in vivo. Mice (8-10 weeks old) were injected intraperitoneally with […] D-galactosamine (Dgal) to sensitize them to LPS according to the method of Galanos (Galanos et al. (1979) Proc. Natl. Acad. Sci., USA, 76:5939-5943). Endotoxic shock was induces by intraperitoneal injections of 3 μg/mL E. coli 111 :B4 LPS in phosphate-buffered saline (PBS). Invention peptides (200 μg/100 μl sterile water) were injected intraperitoneally at a separate site within 10 min of LPS injection, and survival was monitored up to 24 h following injection.

[2] = system: E. coli 0111:B4 LPS induced production of TNF-α in RAW macrophages; experiment: Reduction of LPS-induced TNF-α in RAW 264.7 macrophages (ELISA); format: cell-based, murine; details: for Inhibition of TNF-α (%): peptide 20 μg/ml, LPS 100 ng/ml, RAW 264.7, 6 hours
Experimental: (§1) The ability of invention peptides to reduce LPS-induced tumor necrosis factor (TNF) production was tested in an in vitro assay. The murine macrophage cell line RAW 264.7 was obtained from American Type Culture Collection (Manassas, Va.) and grown in DMEM medium supplemented with 10% fetal calf serum. The cells were plated at a density of 10^6 cells/well in 24 well plates, incubated overnight, then washed with fresh medium. E. coli 0111 :B4 (100 ng/ml) was added at time 0 to RAW macrophages. Invention peptides […]/m were added at time 0, 30 and 60 minutes and the cells were stimulated for 6 hours. Levels of TNF and interleukin-6 (IL-6) were measured after 6 hours.

[3] = Dansyl polymyxin B displacement assay (binding affinity for LPS); design: species or system Escherichia coli; details: for Imax: maximal displacement, 100% = that observed with polymyxin B; for IC50: peptide concentration reducing bound dansyl polymyxin B (10 μM) by 50% of maximal displacement, read-out: I50
Experimental: To determine whether invention peptides are able to interact with the LPS of Gram-negative bacterial outer membrane, the binding affinity of peptide for LPS was determined using a dansyl polymyxin B displacement assay (Moore et al. (1986) Antimicrobial Agents Chemother. 29:496-500). The assay uses dansyl polymyxin, a cationic probe that is highly fluorescent only when bound and LPS isolated from E. coli. UB1005. […] Maximal displacement of LPS was expressed as a percentage where 100% displacement of dansyl polymyxin B was taken as that observed with polymyxin B.

P. aeruginosa M2 = experiment: P. aeruginosa infection in neutropenic mouse model; format: in vivo; details: neutropenic CD-1 mice; for Mean Time to Death: 200 μg peptide intraperitoneally 30 min after infection; for Survival (%), P. aeruginosa infection: 200 μg peptide intraperitoneally, groups of 5 mice, assessed 24 to 72 hours
Experimental: Invention peptides were assayed for their ability to protect against P. aeruginosa infection in a neutropenic mouse mode. Female CD-1 mice, made neutropenic by three injections of cyclophosphamide (see Gough et al., (1996) Infect. Immun. 64:4922-4927) were injected intraperitoneally with a 100% lethal dose of P. aeruginosa M2 (approximately 200 organisms). Thirty minutes later, mice were injected intraperitoneally with invention peptides (200 μg/100 μl) Survival was assessed 24 to 72 hours later.

[4] = system: E. coli 0111:B4 LPS induced production of IL-6 in RAW macrophages; experiment: Reduction of LPS-induced IL-6 in RAW 264.7 macrophages (ELISA); format: cell-based, murine; details: for Inhibition of IL-6 (%): peptide 20 μg/ml, LPS 100 ng/ml, RAW 264.7, 6 hours
Experimental: as §1

[5] = system: intact cells of E. coli UB1005; experiment: NPN uptake assay, outer membrane permeabilization; format: cell-based, Escherichia coli; details: peptide concentration leading to 50% of maximal increase in NPN uptake
Experimental: The outer membrane permeabilization activity of invention peptides was determined by the 1-N-phenylnapthylamine (NPN) uptake assay of Loh et al. ((1984) Antimicor. Agents Chemother. 26:546-551), using intact cells of E. coli UB1005.
(§2) The cytoplasmic membrane depolarization activity of the peptides was determined (Wu and Hancock (1999) J. Biol. Chem. 274:29-35) using the membrane potential sensitive dye 3,3-dipropylthiacarbocyanine diSC35 (28) and E. coli DC2. Bacterial cells in mid-log phase were centrifuged, washed in 5 mM HEPES, pH 7.8, and resuspended in the same buffer to an OD600 of 0.05. A stock solution of diSC35 was added to a final concentration of 0.4 μM and quenching was allowed to occur at room temperature for 20-30 min. Then KCl was added to the cell suspension to a final concentration of 100 mM to equilibrate the cytoplasmic and external K^+ concentrations. A 2-mL cell suspension was placed in a 1 cm cuvette and the desired concentration of tested peptide was added. Changes in fluorescence due to the disruption of the membrane potential in the cytoplasmic membrane were continuously recorded using a Perkin-Elmer model 650-10S spectrofluorimeter at an excitation wavelength of 622 nm and an emission wavelength of 670 nm. The concentration of peptide leading to a 50% of maximal increase in NPN uptake was recorded as the P50.
Therefore, an increase in fluorescence in the presence of a peptide indicates the ability of peptide to permeabilize the bacterial outer membrane.

E. coli DC2 = experiment: Cytoplasmic membrane depolarization, diSC35 assay; format: cell-based, Escherichia coli; details: 0.25 μg/ml (1×MIC)
Experimental: The arrowhead indicates the time at which 0.25 μg/ml peptide was added. PV5: SEQ ID NO:11; PV7: SEQ ID NO:4; and PV8: SEQ ID NO:3.
as §2

Compound	hemolytic activity (Human Red Blood Cells)	Survival (%), LPS-Endotoxemia [1] [%]	Inhibition of TNF-α (%) [2] [%]	Imax [3] [%]	IC50 [3] [µM]	Mean Time to Death (P. aeruginosa M2) [h]	Survival (%), P. aeruginosa infection (P. aeruginosa M2) [%]	Inhibition of IL-6 (%) [4] [%]	P50 [5] [µg/mL]	inhibition of TNF-α production ([2]; 20 μg/ml)	diSC35 dye release from cells (E. coli DC2)	inhibition of IL-6 production ([4]; 20 μg/ml)
CC(C)[C@@H]1NC(=O)[C@H](CCCNC(=N)N)NC(=O)[C@H](Cc2ccccc2)NC(=O)[C@@H](NC(=O)[C@H](Cc2c[nH]c3ccccc23)NC(=O)[C@H](CCCNC(=N)N)NC(=O)[C@@H](N)Cc2ccccc2)CSSC[C@@H](C(=O)N[C@@H](CCCNC(=N)N)C(N)=O)NC(=O)[C@H](CCCCN)NC(=O)[C@H](Cc2ccc(O)cc2)NC(=O)[C@H](CCCNC(=N)N)NC(=O)[C@@H]2CSSC[C@H](NC1=O)C(=O)N[C@@H](Cc1ccc(O)cc1)C(=O)N[C@@H](CCCCN)C(=O)NCC(=O)N[C@@H](CCCNC(=N)N)C(=O)N2 [SEQ ID NO:3, FRWCFRVCYKGRCRYKCR] (HELM PEPTIDE1{F.R.W.C.F.R.V.C.Y.K.G.R.C.R.Y.K.C.R.[am]}$PEPTIDE1,PEPTIDE1,4:R3-17:R3|PEPTIDE1,PEPTIDE1,8:R3-13:R3$$$V2.0)	show hemolytic activity	20	55 ± 5	93	4.9	>72	60	70 ± 6	3.9			
CC(C)[C@@H]1NC(=O)[C@H](CCCNC(=N)N)NC(=O)[C@H](Cc2ccccc2)NC(=O)[C@@H](NC(=O)[C@H](Cc2c[nH]c3ccccc23)NC(=O)[C@H](CCCNC(=N)N)NC(=O)[C@@H](N)CCCNC(=N)N)CSSC[C@@H](C(=O)N[C@@H](CCCNC(=N)N)C(N)=O)NC(=O)[C@H](CCCCN)NC(=O)[C@H](Cc2ccc(O)cc2)NC(=O)[C@H](CCCNC(=N)N)NC(=O)[C@@H]2CSSC[C@H](NC1=O)C(=O)N[C@@H](Cc1ccc(O)cc1)C(=O)N[C@@H](CCCCN)C(=O)NCC(=O)N[C@@H](Cc1ccccc1)C(=O)N2 [SEQ ID NO:4, RRWCFRVCYKGFCRYKCR] (HELM PEPTIDE1{R.R.W.C.F.R.V.C.Y.K.G.F.C.R.Y.K.C.R.[am]}$PEPTIDE1,PEPTIDE1,4:R3-17:R3|PEPTIDE1,PEPTIDE1,8:R3-13:R3$$$V2.0)	show hemolytic activity	40	61 ± 5	76	5.7	61	40	77 ± 6	4.1			
CC(C)[C@@H]1NC(=O)[C@H](CCCNC(=N)N)NC(=O)[C@H](Cc2ccccc2)NC(=O)[C@@H](NC(=O)[C@H](Cc2c[nH]c3ccccc23)NC(=O)[C@H](CCCNC(=N)N)NC(=O)[C@@H](N)CCCNC(=N)N)CSSC[C@@H](C(=O)N[C@@H](CCCNC(=N)N)C(N)=O)NC(=O)[C@H](CCCCN)NC(=O)[C@H](CCCNC(=N)N)NC(=O)[C@H](Cc2ccc(O)cc2)NC(=O)[C@@H]2CSSC[C@H](NC1=O)C(=O)N[C@@H](Cc1ccc(O)cc1)C(=O)N[C@@H](CCCNC(=N)N)C(=O)NCC(=O)N[C@@H](CCCNC(=N)N)C(=O)N[C@@H](Cc1ccccc1)C(=O)N2 [SEQ ID NO:11, RRWCFRVCYRGRFCYRKCR] (HELM PEPTIDE1{R.R.W.C.F.R.V.C.Y.R.G.R.F.C.Y.R.K.C.R.[am]}$PEPTIDE1,PEPTIDE1,4:R3-18:R3|PEPTIDE1,PEPTIDE1,8:R3-14:R3$$$V2.0)	show hemolytic activity	50	90 ± 6	87	3	57	40	91 ± 4	3.7	best inhibitor	unable to cause a significant level of dye release	best inhibitor
Polymyxin B [reference compound]				100	5.6							
